Experimental data reported in ChEMBL document CHEMBL4483862, “Open-source discovery of chemical leads for next-generation chemoprotective antimalarials” (2018).

System: Plasmodium berghei
Assay: Luciferase/luciferin-expressing antifolate-resistant parasites were used to infect a culture of HepG2 cells that were pre-incubated with compounds. Infected hepatocytes emit light due to the luciferase reaction. Assay results are presented as the percent inhibition of light emission compared to control. […]
Type: functional
Settings: sporozoite; for IC90: read-out: LUCIFERASE INFECTION ASSAY - IC90
[1] = read-out: LUCIFERASE INFECTION ASSAY - IC50

Structure (SMILES) | IC90 [µM] | IC50 [1] [µM] | also measured
O=C(/C=C/c1ccco1)Nc1ccc(Cl)c(Cl)c1 | 11.3 |  | IC50 (HEPG2TOX_HILL_SLOPE 2.91, HEPG2TOX_R_SQUARED 0.987, PBLUC_HILL_SLOPE 6.61, PBLUC_R_SQUARED 0.512, read-out: LUCIFERASE INFECTION ASSAY - IC50): 8.1 µM
COc1ccc(-c2cc(NC(=O)C(C)NS(=O)(=O)c3ccc(C)cc3)ccc2OC(F)F)cc1 (stereo unspecified) | > 10 | 8.3 | 
COCCN(CCOC)C(=O)CSc1nnc(/C=C/c2ccccc2)[nH]1 | > 10 | > 10 | 
Cc1ccc(-c2nn(-c3ccccc3)cc2/C=N/Nc2ncnc(N)c2[N+](=O)[O-])o1 | 1.28 |  | IC50 (FFLUC_HILL_SLOPE 2.88, FFLUC_R_SQUARED 0.103, HEPG2TOX_HILL_SLOPE 0.791, HEPG2TOX_R_SQUARED 0.887, PBLUC_HILL_SLOPE 4.72, PBLUC_R_SQUARED 0.877, read-out: LUCIFERASE INFECTION ASSAY - IC50): 0.806 µM
NC(=O)C1CCN(c2nc(/C=C/c3ccccc3)nc3sc4c(c23)CCCC4)CC1 | > 10 |  | IC50 (FFLUC_HILL_SLOPE 8.41, FFLUC_R_SQUARED 0.401, PBLUC_HILL_SLOPE 20.5, PBLUC_R_SQUARED 0.298, read-out: LUCIFERASE INFECTION ASSAY - IC50): 9.42 µM
Cc1nc(N2CCN(Cc3ccccc3)CC2)nc2c1C(=O)CC(C)C2 (stereo unspecified) | > 9.42 | > 9.42 | 
Cc1ccc(CSc2ccc([N+](=O)[O-])c3nonc23)cc1 | > 11 |  | IC50 (HEPG2TOX_HILL_SLOPE 7.3, HEPG2TOX_R_SQUARED 0.39, read-out: LUCIFERASE INFECTION ASSAY - IC50): > 11 µM
Nc1nc(CN2CCN(Cc3cccc4cccnc34)CC2)nc2ccccc12 | > 10 | > 10 | 
Cc1onc(-c2ccc(Cl)cc2Cl)c1-c1csc(Nc2cc(C(F)(F)F)cc(C(F)(F)F)c2)n1 | 2.73 |  | IC50 (HEPG2TOX_HILL_SLOPE 2.62, HEPG2TOX_R_SQUARED 0.945, PBLUC_HILL_SLOPE 2.66, PBLUC_R_SQUARED 0.706, read-out: LUCIFERASE INFECTION ASSAY - IC50): 1.19 µM
CNS(=O)(=O)c1cccc(C(=O)Nc2ccc(Cl)c(C(F)(F)F)c2)c1 | > 10 |  | IC50 (HEPG2TOX_HILL_SLOPE 0.613, HEPG2TOX_R_SQUARED 0.555, PBLUC_HILL_SLOPE 3.22, PBLUC_R_SQUARED 0.568, read-out: LUCIFERASE INFECTION ASSAY - IC50): 7.21 µM
Cc1nn(Cc2ccccc2Cl)c(Cl)c1C(=O)OC(C(=O)c1c[nH]c2ccccc12)c1ccccc1 (stereo unspecified) | > 10 |  | IC50 (PBLUC_HILL_SLOPE 3.17, PBLUC_R_SQUARED 0.115, read-out: LUCIFERASE INFECTION ASSAY - IC50): 6.36 µM
Cc1ccc(-c2c(C)sc3[nH]c(CN(C)CC(=O)Nc4cccc(C)c4C)nc(=O)c23)cc1 | > 10 | > 10 | 
COCc1ccc(C(=O)Nc2ccc(-n3cnc4ccccc43)nc2)cc1 | > 10 |  | IC50 (HEPG2TOX_HILL_SLOPE 7.46, HEPG2TOX_R_SQUARED 0.472, PBLUC_HILL_SLOPE 11.4, PBLUC_R_SQUARED 0.343, read-out: LUCIFERASE INFECTION ASSAY - IC50): 9.69 µM
Cc1ccc(N2C(=O)/C(=C\c3ccc4c(c3)OCO4)N=C2SCC(=O)NCC2CCCO2)cc1 (stereo unspecified) | > 10 | > 10 | 
C=CCn1c(C)cc(C(=O)Cn2c(=O)c(=O)n(Cc3ccccc3)c3ccc(Cl)cc32)c1C | > 10 | > 10 | 
N#C/C(=N\Nc1ccc(F)cc1)C(=O)c1ccc(Cl)cc1 | > 10.9 | 9.59 | 
CC1C/C(=N\Nc2cc(Cl)cc(Cl)c2)c2cc(Cl)ccc2S1 (stereo unspecified) | > 8.88 |  | IC50 (HEPG2TOX_HILL_SLOPE 6.52, HEPG2TOX_R_SQUARED 0.251, PBLUC_HILL_SLOPE 17, PBLUC_R_SQUARED 0.35, read-out: LUCIFERASE INFECTION ASSAY - IC50): 8.47 µM
Cc1cccc(C(=O)NC(C(=O)Nc2ccn(C)n2)C(C)C)c1 (stereo unspecified) | > 10 | > 10 | 
CCN(CC)Cc1ccccc1CNC(=O)c1cccc2ccccc12 | > 10 | > 10 | 
NC(=O)C1CCN(C(=O)CCn2c(=O)oc3ccccc32)CC1 | > 10 | > 10 | 
N#Cc1cc(Cl)ccc1N1C(=O)C=CC1=O | > 14.2 |  | IC50 (FFLUC_HILL_SLOPE 1.82, FFLUC_R_SQUARED 0.838, PBLUC_HILL_SLOPE 13, PBLUC_R_SQUARED 0.372, read-out: LUCIFERASE INFECTION ASSAY - IC50): 13.6 µM
Cc1ccccc1CN1CCN2C=C(C(=O)Nc3ccc(Oc4ccccc4)cc3)OC2=NC1=O | > 10 | > 10 | 
COc1ccc(C2CC(c3ccccc3)=NN2C(=O)CSc2ncnc3ccccc23)cc1 (stereo unspecified) | > 10 | > 10 | 
O=C(NC(c1ccccc1)c1ccccc1)[C@H]1C[C@H](O)[C@@H](CO)O1 | > 10.1 | > 10.1 | 

Structure (SMILES) | IC90 [µM] | IC50 [1] [µM] | also measured
FC(F)(F)c1ccc(N/N=C/c2sc(N3CCOCC3)nc2-c2ccccc2)c(Cl)c1 | > 10 |  | IC50 (FFLUC_HILL_SLOPE 1.6, FFLUC_R_SQUARED 0.81, read-out: LUCIFERASE INFECTION ASSAY - IC50): > 10 µM
CC(C)(C)c1ccc(OCC(=O)NNC(=O)Cc2csc(-c3ccccc3)n2)cc1 | > 10 | > 10 | 
Cc1cc(NNC(=O)c2ccccc2Cl)nc2c1c(-c1cccs1)nn2C | > 8.29 | > 8.29 | 
Clc1ccccc1Oc1ccc(Nc2ccc3nnnn3n2)cc1 | > 10 | > 10 | 
Cc1cccc(N/N=C2\C=NN=C2c2ccc(Br)cc2)c1 | > 9.67 |  | IC50 (FFLUC_HILL_SLOPE 12.3, FFLUC_R_SQUARED 0.435, HEPG2TOX_HILL_SLOPE 0.345, HEPG2TOX_R_SQUARED 0.819, PBLUC_HILL_SLOPE 10.9, PBLUC_R_SQUARED 0.46, read-out: LUCIFERASE INFECTION ASSAY - IC50): 9.21 µM
N#Cc1nncn1Cc1csc(-c2cccs2)n1 | 9.56 |  | IC50 (PBLUC_HILL_SLOPE 12.1, PBLUC_R_SQUARED 0.315, read-out: LUCIFERASE INFECTION ASSAY - IC50): 7.97 µM
COc1ccc2c(c1)CCCC21NC(=O)N(Cc2cc(=O)n3cc(C)ccc3n2)C1=O (stereo unspecified) | 1.38 |  | IC50 (PBLUC_HILL_SLOPE 1.52, PBLUC_R_SQUARED 0.761, read-out: LUCIFERASE INFECTION ASSAY - IC50): 0.324 µM
Cc1sc2nc(CN3CCCC3)nc(Oc3ccc4ccncc4c3)c2c1C | > 10 | 9.51 | 
O=C(Nc1nc2cc(C(F)(F)F)ccc2n1Cc1ccco1)C1CCC1 | 4.08 |  | IC50 (PBLUC_HILL_SLOPE 12.7, PBLUC_R_SQUARED 0.404, read-out: LUCIFERASE INFECTION ASSAY - IC50): 3.43 µM
COc1cccc(C(CNc2nc(C)nc3sc4c(c23)CCCCC4)N2CCCC2)c1 (stereo unspecified) | > 10 | > 10 | 
Cc1ccc(S(=O)(=O)N(C)Cc2ccc(-c3nnc4n3-c3ccccc3SC4)cc2)cc1 | > 10 | 3.08 | 
Cc1ccc(-c2oc(NC(=O)c3cncc(Br)c3)c(C#N)c2-c2ccc(C)cc2)cc1 | 9.82 |  | IC50 (FFLUC_HILL_SLOPE 4.83, FFLUC_R_SQUARED 0.721, HEPG2TOX_HILL_SLOPE 9.42, HEPG2TOX_R_SQUARED 0.907, PBLUC_HILL_SLOPE 30.3, PBLUC_R_SQUARED 0.463, read-out: LUCIFERASE INFECTION ASSAY - IC50): 9.13 µM
O=C(Nc1cc(Cl)cc(Cl)c1)Nc1cccnc1N1CCC(C(F)(F)F)CC1 | 2.83 |  | IC50 (HEPG2TOX_HILL_SLOPE 11.8, HEPG2TOX_R_SQUARED 0.784, PBLUC_HILL_SLOPE 19.7, PBLUC_R_SQUARED 0.439, read-out: LUCIFERASE INFECTION ASSAY - IC50): 2.53 µM
CC(=O)c1c(C)[n+]([O-])c2ccccc2[n+]1[O-] [MEQUINDOX] | > 15.1 |  | IC50 (FFLUC_HILL_SLOPE 0.566, FFLUC_R_SQUARED 0.11, read-out: LUCIFERASE INFECTION ASSAY - IC50): > 15.1 µM
O=C(OCc1csc(-c2ccccc2)n1)c1ccccc1Sc1ccc(C(F)(F)F)cc1[N+](=O)[O-] | > 10 | > 10 | 
CCC(OC(=O)c1cc2ccccc2[nH]1)C(=O)Nc1cc(C)on1 (stereo unspecified) | > 10 | > 10 | 
Cc1ccc(-c2cnn3c(N4CCCC4)cc(C)nc23)cc1 | 9.26 |  | IC50 (PBLUC_HILL_SLOPE 2.02, PBLUC_R_SQUARED 0.442, read-out: LUCIFERASE INFECTION ASSAY - IC50): 3.13 µM
O=C(Nc1nc2ccccc2[nH]1)c1cn(Cc2ccccc2)nc1-c1cccnc1 | > 10 |  | IC50 (PBLUC_HILL_SLOPE 3.18, PBLUC_R_SQUARED 0.533, read-out: LUCIFERASE INFECTION ASSAY - IC50): 7.1 µM
CC(=O)NCCc1nccn1Cc1ccccc1 | > 10 | > 10 | 
CCc1cccc2c(C3=CCN(c4ncccn4)CC3)c[nH]c12 | > 10 | > 10 | 
CCCN1C/C(=C/c2csnn2)C(=O)/C(=C/c2csnn2)C1 | > 10 |  | IC50 (HEPG2TOX_HILL_SLOPE 13.3, HEPG2TOX_R_SQUARED 0.713, read-out: LUCIFERASE INFECTION ASSAY - IC50): > 10 µM
O=C(/C=C/c1ccc([N+](=O)[O-])s1)Nc1ccc(F)cc1F | > 10 | 8.88 | 
Cc1cc(=O)n2nc(C)c(-c3ccc(F)cc3)c2[nH]1 | > 12.8 |  | IC50 (PBLUC_HILL_SLOPE 15.8, PBLUC_R_SQUARED 0.105, read-out: LUCIFERASE INFECTION ASSAY - IC50): > 12.8 µM
O=C(Nc1ccc(-n2nncc2-c2ccccc2)cc1)c1ccc(S(=O)(=O)N2CCCCC2)cc1 | 9.56 |  | IC50 (FFLUC_HILL_SLOPE 38.4, FFLUC_R_SQUARED 0.244, HEPG2TOX_HILL_SLOPE 8, HEPG2TOX_R_SQUARED 0.798, PBLUC_HILL_SLOPE 2.57, PBLUC_R_SQUARED 0.825, read-out: LUCIFERASE INFECTION ASSAY - IC50): 4.06 µM
